1 molecule from paper PMC11047580, “Design and Synthesis of Novel Amino and Acetamidoaurones with Antimicrobial Activities” (Antibiotics, 2024) can be followed below.

Structures are written as SMILES. Values after ≈ are worked out from the molar mass of the structure shown. A value given as a limit tells only on which side of the number the result lay.

In one series the test system is S. aureus ATCC6538P. Nature of the series: MIC assay. The class given is cell-based, Staphylococcus aureus. As to conditions: Staphylococcus aureus, ATCC6538P; two-fold serial dilutions in liquid media; n = 2–3.
For the next series, the system named is P. aeruginosa ATCC9027. Nature of the series: MIC assay. The settings on record: Pseudomonas aeruginosa, ATCC9027; two-fold serial dilutions in liquid media; n = 2–3. The class given is cell-based, Pseudomonas aeruginosa.
A further series concerns MRSA (ATCCBAA-1717). The series is described as follows: MIC assay. Format: cell-based, methicillin-resistant S. aureus. The settings on record: Staphylococcus aureus, read-out: MIC MRSA (ATCCBAA-1717).
The test system of series [1] is Acinetobacter baumannii (DSM30007). Nature of the series: MIC assay. The class given is cell-based. As to conditions: two-fold serial dilutions in liquid media, n = 2–3.
The subject of series [2] is Salmonella enterica (CIP80.39). The series is described as follows: MIC assay. The class given is cell-based. As to conditions: two-fold serial dilutions in liquid media, n = 2–3.
Series [3] concerns Vibrio alginolyticus (DSM2171). Nature of the series: MIC assay. The settings on record: two-fold serial dilutions in liquid media, n = 2–3. Format: cell-based.
Series [4] relates to Mycobacterium abscessus S (CIP 104536^T). The series is described as follows: MIC assay (REMA). Format: cell-based. As to conditions: REMA microdilution, n = 2–3.
Series [5] concerns Cryptococcus neoformans (DSM11959). The series is described as follows: MIC assay. Format: cell-based. As to conditions: two-fold serial dilutions in liquid media, n = 2–3.
Series [6] has as its system normal epidermal keratinocytes (HaCaT). As to conditions: human.
The test system of series [7] is human cells (A498, BEAS-2B, Caco-2, HaCaT, HepG2, IMR-90).
Series [8] is described as follows: Cytotoxic assay (resazurin). As to conditions: human, BEAS-2B normal lung epithelial cells.
Series [9] can be described thus: Cytotoxic assay (resazurin). As to conditions: human, HaCaT normal epidermal keratinocytes.
The nature of series [10]: Cytotoxic assay (resazurin). As to conditions: human, HepG2 liver cells. For orientation: Alamar Blue is a resazurin reagent that responds to reducing activity.
The nature of series [11]: Cytotoxic assay (resazurin). The settings on record: human, IMR-90 normal lung fibroblasts.

For `CC(=O)Nc1ccc2c(c1)C(=O)/C(=C/c1cccc(OCc3ccccc3)c1)O2` [Compound 10, (Z)-N-(2-(3-(benzyloxy)benzylidene)-3-oxo-2,3-dihydrobenzofuran-5-yl)acetamide], the melting point worked out at 204.5 °C. Further, the MIC against S. aureus ATCC6538P came to 12.5 µM (≈ 4.82 µg/mL). In the series with P. aeruginosa ATCC9027, this molecule yielded an MIC of 25 µM (≈ 9.64 µg/mL). The MIC in the series on MRSA (ATCCBAA-1717) came to 12.5 µM (≈ 4.82 µg/mL). It took 12.5 µM (≈ 4.82 µg/mL) to inhibit growth in [1] (MIC). The same molecule registered an MIC in series [2] of 25 µM (≈ 9.64 µg/mL). The MIC in [3] turned out to be 25 µM (≈ 9.64 µg/mL). The same molecule came in with an MIC in series [4] (Mycobacteroides abscessus, CIP104536, S morphotype) of over 100 µM. In addition, the “MIC Mycobacterium abscessus S (CIP 104536^T)” value in series [4] (S morphotype) is “inactive”. This molecule yielded an MIC in series [5] of 25 µM (≈ 9.64 µg/mL). Further, the “TI with MIC of 0.78 µM, HaCaT” value in series [6] was found to be 344.2. The “TI values, range over human cells” value in series [7] is recorded as 216.6-605.6. In series [8], this molecule registered a CC50 at 48 h of 169 µM. Further, the CC50 at 48 h in series [9] is 268 µM. This molecule also gave a CC50 at 48 h in series [10] of 472 µM. In series [11], this molecule returned a CC50 at 48 h of 421 µM.

The MIC is the lowest concentration found to suppress growth. For orientation: melting point means the temperature of the solid-liquid transition. As usually defined, the CC50 is the concentration giving 50% cytotoxicity.
